# Experimental data as given in patent US20230045112A1, “DISULFIRAM AND OTHER REDOX-RELATED COMPOSITIONS FOR BRAIN TUMORS” (Texas Tech University System, priority 2014, published 2023).
# How the values were obtained:
# MGMT [1] = target: T1, MGMT (Homo sapiens, UniProt P16455); experiment: MGMT activity and protein in MGMT-proficient human cancer cell lines (HT29, T47D, HCT116); format: cell-based; set-up: endogenous in cells; host or cells: HT29, T47D, HCT116
# T1 sequence (P16455 1-207): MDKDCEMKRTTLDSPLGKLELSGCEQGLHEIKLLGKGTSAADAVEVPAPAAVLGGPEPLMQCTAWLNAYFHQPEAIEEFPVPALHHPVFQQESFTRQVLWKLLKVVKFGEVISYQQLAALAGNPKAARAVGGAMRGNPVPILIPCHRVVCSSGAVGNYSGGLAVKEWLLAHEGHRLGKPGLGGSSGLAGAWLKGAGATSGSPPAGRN
# cell lines = experiment: Cytotoxicity of NO-aspirin for cell lines; format: cell-based
# NQO1 = NQO1 (Homo sapiens, UniProt P15559); experiment: NQO1 substrate assay (NADH utilization); format: biochemical
# Procedure: (§1) (FIG. 17A). The generation of ROS by GNQ was assessed by using fluorescent probes DCFDA and DHE (FIG. 17C). GNQ acts as NQO1 substrate in vitro. (FIG. 17B) Reduction pathways and subsequent reactions of GNQ. (FIG. 17C) Intracellular ROS levels were measured using DCFDA and DHE. (FIG. 17D) Anti-oxidants reversed the GNQ induced apoptosis. Antitumor efficacy of GNQ against intracranial DAOY medulloblastoma: The BBB permeability of GNQ was examined by pharmacokinetic analysis after IV injections in normal mice. […] Intracranial DAOY tumors were set up in nude mice and the tumor growth was assessed by quantitative bioluminescence. […] FIG. 18A, 18B show complete suppression of intracranial DAOY medulloblastoma growth by GNQ. GNQ was given IP at 25 mg/kg/d, 5 d/wk for about 4 weeks. […] (FIG. 18D) Ex-vivo bioluminescence from the isolated brains (FIG. 18E) Accumulation of GNQ in the brain when compared to plasma. (FIG. 18F) H&E staining of mouse brain sections showing the elimination of […] by GNQ. (FIG. 18G) Mean tumor volume radiance in the GNQ-treated group was compared with that in the control. Different substitutions (halogens, aryl, alkyl, and alkoxy groups) can be made to GNQ to append alkyl side chains to impart hydrophobicity to prepare BBB penetrating analogs.
# [2] = test system: Reactive oxygen species (ROS); experiment: Intracellular ROS by GNQ (DCFDA and DHE); format: cell-based
# Procedure: as §1
# [3] = test system: intracranial DAOY medulloblastoma; experiment: Intracranial DAOY medulloblastoma in nude mice treated with GNQ, bioluminescence; format: in vivo; details: IP 25 mg/kg/d, 5 d/wk for about 4 weeks
# Procedure: Intracranial glioblastoma xenograft development in nude mice: GBM cells stably expressing luciferase and GFP are suspended at 2×10^5 cells/5 μl sterile PBS injected into mouse brains. For developing […], mice are anesthetized and placed on a stereotactic apparatus. For developing breast cancer brain metastases xenografts, brain-seeking breast cancer cells are injected into the left ventricle of the heart of each mouse under anesthesia. Three weeks later the mice are imaged for intracranial Firefly luciferase activity. Mice with intracranial bioluminescence are randomly divided into different groups for drug treatments. Imaging is performed 10 minutes after i.p. injection of D-luciferin (2 mg per animal) with mice lying in the prone position. Besides the bioluminescence studies, the survival of the human glioblastoma cell grafted mice after drug administrations are closely followed to generate the Kaplan-Meir curves.
# (FIG. 17A). The generation of ROS by GNQ was assessed by using fluorescent probes DCFDA and DHE (FIG. 17C). GNQ acts as NQO1 substrate in vitro. (FIG. 17B) Reduction pathways and subsequent reactions of GNQ. (FIG. 17C) Intracellular ROS levels were measured using DCFDA and DHE. (FIG. 17D) Anti-oxidants reversed the GNQ induced apoptosis. […] Intracranial DAOY tumors were set up in nude mice and the tumor growth was assessed by quantitative bioluminescence. […]
# [4] = test system: Normal astrocytes and NQO1-null cells; experiment: Cytotoxicity of GNQ against normal and NQO1-null cells; format: cell-based
# Description: (§2) (FIG. 15B) Cytotoxicity of GNQ against normal cells astrocytes and primary neurons. (FIG. 15C) Cytotoxicity against NQO1 null cell line MDA-MB-231. (FIG. 15D) Cytotoxicity values against normal and cancer cells in micromoles. […] Normal astrocytes and NQO1-null cells were not sensitive to GNQ.
# [5] = Pharmacokinetic analysis of GNQ after IV injections, BBB permeability; format: in vivo; details: mouse, brain, normal mice, read-out: accumulation in the brain, % of plasma levels
# Procedure: as §1
# brain tumor cells = experiment: Cytotoxicity of GNQ against brain tumor cells, NQO1 dependence; format: cell-based; details: coincubation with ES936 or dicumarol
# Description: as §2
# DAOY cells = experiment: Potentiation of TMZ cytotoxicity by GNQ; format: cell-based
# Description: (§3) To further validate the MGMT deficiency, tumor cells exposed to GNQ can be treated with BCNU and the interstrand DNA crosslinking induced by BCNU, which can be quantitated by ethidium bromide fluorescence assay. Thus, it is possible to take advantage of these altered DNA repair pathways to combine GNQ with TMZ and PARP inhibitors and perform antitumor efficacy studies in orthotopic xenografts of pediatric brain cancers.
# (§4) FIG. 21A to 21D show the inhibition of MGMT activity (FIG. 21A) and its degradation (FIG. 21B) induced by GNQ in DAOY cells. […] (FIG. 21D) GNQ potentiates the cytotoxicity of TMZ.
# MGMT [6] = target: T1, MGMT; experiment: MGMT inhibition by GNQ in DAOY cells; format: cell-based; set-up: endogenous in cells; host or cells: DAOY
# Description: as §3, §4
# MGMT [7] = target: T1, MGMT; set-up: endogenous in cells; host or cells: DAOY; details: cultured tumor cells; cited from earlier work
# MGMT [8] = target: T1, MGMT; experiment: MGMT activity and protein (western blot) in drug-treated T98G and UW228 brain tumor cells; format: cell-based; set-up: endogenous in cells; host or cells: UW228, T98G; details: UW228 cells
# Procedure: The DNA repair activity of MGMT was measured by the transfer of [3H]-labeled methyl groups from the O^6-position of guanine in the DNA substrate to the MGMT protein as described previously. The DNA substrate enriched in O6-methylguanine was prepared by reacting [3H]-methylnitrosourea (GE Healthcare, 60 Ci/mmol). Briefly, the cell pellets were washed with cold PBS, disrupted by sonication in the assay buffer (30 mM Tris-HCl pH 7.5, 0.5 mM DTT, 0.5 mM EDTA, 5% glycerol, and 20 μM spermidine) and centrifuged. The extracts (50-150 μg protein) were supplemented with the [3H]-DNA (10,000 cpm) and incubated at 37° C. The reactions were terminated by the addition of TCA, the DNA substrate was hydrolyzed at 80° C., and following filtration on glass fiber discs; the radioactivity present in protein precipitates was quantitated.
# After trypsinization, the cell pellets were washed with cold PBS, and subjected to sonication in 50 mM Tris-HCl (pH 8.0) containing 1% glycerol, 1 mM EDTA, 0.5 mM PMSF and 2 mM benzamidine and centrifuged. Equal protein amounts from different treatments were electrophoresed on 12% SDS-polyacrylamide gels. Proteins were electro-transferred to Immobilon-P membranes. The membranes were blocked with 5% non-fat dry milk in Trisbuffered saline (TBS; pH 8.0) containing 0.1% Tween 20 for 3 hours, and subsequently incubated with appropriate primary antibodies. Antigen-antibody complexes were visualized by enhanced chemiluminiscence (Pierce Company). Band intensities were quantified using a Bio-Rad Versa Doc Imaging system.
# Cells were trypsinized, washed and MGMT activity was determined in cell extracts (top panel). The same extracts were western blotted for MGMT protein. WB, western blot. […] Cells were exposed to CuDSF and analyzed for MGMT activity and protein as above. […] To delineate the appropriate time for alkylating drug treatments following MGMT inhibition, next, the time course of MGMT depletion by these three interventions was studied.
# At times indicated, MGMT activity and protein levels were assessed.
# MGMT performs a stoichiometric reaction to accomplish the DNA repair and is not recycled to its active form. Instead, the inactivated protein is degraded and fresh translation has to occur to restore the MGMT levels in cells. The rate and extent of this recovery is an important factor in the extent of damage introduced to the normal cell genomes such as the bone marrow stem cells. […] MGMT protein and activity levels were analyzed during the depletion and repletion (FIG. 3B).
# Sequence of NQO1 (P15559 whole entry): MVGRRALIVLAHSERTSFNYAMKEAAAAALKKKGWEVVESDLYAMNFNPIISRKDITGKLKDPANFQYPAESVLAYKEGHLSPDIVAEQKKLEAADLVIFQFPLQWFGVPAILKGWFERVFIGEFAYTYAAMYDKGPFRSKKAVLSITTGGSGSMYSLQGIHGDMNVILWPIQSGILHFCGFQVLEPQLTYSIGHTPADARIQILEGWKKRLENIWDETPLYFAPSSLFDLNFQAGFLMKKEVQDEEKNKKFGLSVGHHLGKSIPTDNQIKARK
structure (smiles),measurement,setting,value
"CC(=O)Oc1ccccc1C(=O)Oc1cccc(CO[N+](=O)[O-])c1 [NCX-4016, 2-(acetyloxy) benzoic acid 3-[(nitrooxy)methyl]phenyl ester]",MGMT protein degraded,MGMT [1]; 5 μM for 2 hours,80-90%
same,inhibition of MGMT activity,"MGMT [1]; HT29, T47D, HCT116, 5-10 μM, within 1 hour of exposure",90%
same,MGMT protein regenerated,"MGMT [1]; HT29 cells, 24 hours post-incubation in drug-free medium",More than 60%
same,IC50,cell lines,> 500 µM
O=C1NC2(c3ccccc31)c1ccccc1C1C(=O)c3cccc(O)c3C(=O)C12 (stereo not shown) [GNQ],NADH utilized throughout the assay,NQO1,greater than 1 equiv. of NADH
same,ROS generation,[2],generates Reactive oxygen species (ROS)
same,body weight as a surrogate marker for toxicity,[3],No changes in body weight
same,tumor bioluminescence,[3],complete loss of bioluminescence
same,sensitivity to GNQ,[4],not sensitive
same,Kp,[5],≤ 0.11
same,effect of NQO1 inhibitors on GNQ cytotoxicity,brain tumor cells,reversed by coincubation with NQO1 inhibitors ES936 or dicumarol
same,sensitization to TMZ,DAOY cells,sensitized to TMZ
same,MGMT inhibition,MGMT [6],remarkably inhibited
"Nc1nc(OCc2ccccc2)c2nc[nH]c2n1 [BG, O^6-benzylguanine]",duration of suppression of DNA repair,MGMT [7],48 to 72 h
same,loss/inhibition of MGMT activity at 12 hours post-drug treatment,"MGMT [8]; 50 μM, 12 hours",100%
same,"recovery of MGMT activity, % of control levels",MGMT [8]; 48 hours post-drug in drug-free media after 50 μM for 12 hours,25 % of control levels
